In the supplement of paper PMC10307832:

Experiments:
Assay in all cases: relative viability (nuclei count vs DMSO), 5 days (fraction); higher = more cells survive
Cabozantinib + OSI-027 = compound: COc1cc2nccc(Oc3ccc(NC(=O)C4(C(=O)Nc5ccc(F)cc5)CC4)cc3)c2cc1OC [Cabozantinib] + COc1cccc2cc(-c3nc([C@H]4CC[C@H](C(=O)O)CC4)n4ncnc(N)c34)[nH]c12 [OSI-027] (partner 0.5 µM)
Procedure, shortened: (§1)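 Relative viability was taken as the ratio of nuclei in treated wells to nuclei in vehicle wells. Lung cancer cell lines in 1536-well plates received compounds by pin tool one day after seeding, either one drug alone or a fixed anchor-drug dose plus five library-drug doses (not always all listed) in √10 steps. Nuclei were counted on 4× images after 5 days of treatment, and values are medians of duplicate plates.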

Zosuquidar + Pictilisib = compound: O[C@@H](COc1cccc2ncccc12)CN1CCN([C@@H]2c3ccccc3[C@@H]3[C@H](c4ccccc42)C3(F)F)CC1 [Zosuquidar] + CS(=O)(=O)N1CCN(Cc2cc3nc(-c4cccc5[nH]ncc45)nc(N4CCOCC4)c3s2)CC1 [Pictilisib] (partner 1 µM)
Procedure, shortened: as §1

Zosuquidar + Vorinostat = compound: O[C@@H](COc1cccc2ncccc12)CN1CCN([C@@H]2c3ccccc3[C@@H]3[C@H](c4ccccc42)C3(F)F)CC1 [Zosuquidar] + O=C(CCCCCCC(=O)Nc1ccccc1)NO [Vorinostat] (partner 1 µM)
Procedure, shortened: as §1

Kobe2602 + Tozasertib = compound: C1=CC(=CC=C1NC(=S)NNC2=C(C=C(C=C2[N+](=O)[O-])C(F)(F)F)[N+](=O)[O-])F [Kobe2602] + Cc1cc(Nc2cc(N3CCN(C)CC3)nc(Sc3ccc(NC(=O)C4CC4)cc3)n2)n[nH]1 [Tozasertib] (partner 0.1 µM)
Procedure, shortened: as §1

| Cell Line | relative viability (Cabozantinib + OSI-027; first compound 0.06325 µM) | relative viability (Cabozantinib + OSI-027; first compound 0.2 µM) | relative viability (Cabozantinib + OSI-027; first compound 0.6325 µM) | relative viability (Cabozantinib + OSI-027; first compound 2 µM) | relative viability (Zosuquidar + Pictilisib; first compound 0.01 µM) | relative viability (Zosuquidar + Pictilisib; first compound 0.03162 µM) | relative viability (Zosuquidar + Pictilisib; first compound 0.1 µM) | relative viability (Zosuquidar + Pictilisib; first compound 0.3162 µM) | relative viability (Zosuquidar + Pictilisib; first compound 1 µM) | relative viability (Zosuquidar + Vorinostat; first compound 0.01 µM) | relative viability (Zosuquidar + Vorinostat; first compound 0.1 µM) | relative viability (Zosuquidar + Vorinostat; first compound 0.3162 µM) | relative viability (Zosuquidar + Vorinostat; first compound 1 µM) | relative viability (Kobe2602 + Tozasertib; first compound 0.2 µM) | relative viability (Kobe2602 + Tozasertib; first compound 0.6325 µM) | relative viability (Kobe2602 + Tozasertib; first compound 2 µM) | relative viability (Kobe2602 + Tozasertib; first compound 6.325 µM) | relative viability (Kobe2602 + Tozasertib; first compound 20 µM) | relative viability (Cabozantinib + OSI-027; first compound 0.02 µM) | relative viability (Zosuquidar + Vorinostat; first compound 0.03162 µM) |
| --- | --- | --- | --- | --- | --- | --- | --- | --- | --- | --- | --- | --- | --- | --- | --- | --- | --- | --- | --- | --- |
| NCI-H23 | 0.729 | 0.645 | 0.624 | 0.489 | 0.479 | 0.525 | 0.393 | 0.574 | 0.496 | 0.536 | 0.57 | 0.695 | 0.662 | 0.464 | 0.342 | 0.308 | 0.829 | 0.236 | – | – |
| NCI-H322M | 0.596 | 0.486 | 0.572 | 0.54 | 0.494 | 0.577 | 0.371 | 0.519 | 0.534 | 0.916 | 0.652 | 0.896 | 0.731 | 0.518 | 0.534 | 0.493 | 0.538 | 0.533 | 0.475 | 1.08 |
| NCI-H358 | 0.888 | 0.628 | 0.74 | 0.67 | 0.339 | 0.349 | 0.218 | 0.366 | 0.304 | 0.662 | 0.634 | 0.646 | 0.639 | 0.0888 | 0.122 | 0.0944 | 0.109 | 0.103 | 0.641 | 0.8 |
| NCI-H441 | 0.653 | 0.663 | 0.564 | 0.559 | 0.449 | 0.435 | 0.512 | – | 0.595 | 0.666 | 0.728 | 0.867 | 0.962 | 0.692 | 0.638 | 0.543 | 0.708 | 0.635 | 0.428 | 0.97 |
| NCI-H460 | 0.927 | 0.664 | 0.624 | 0.584 | 0.326 | 0.393 | 0.27 | 0.437 | 0.393 | 0.658 | 0.687 | 0.776 | 0.739 | 0.342 | 0.402 | 0.411 | 0.154 | 0.0739 | 0.761 | 0.747 |
| NCI-H520 | 0.289 | 0.247 | 0.286 | 0.218 | 0.327 | 0.295 | 0.289 | 0.363 | 0.297 | 0.639 | 0.71 | 0.664 | 0.835 | 0.519 | 0.507 | 0.402 | 0.38 | 0.481 | 0.215 | 0.51 |
| NCI-H596 | 0.738 | 0.65 | 0.667 | 0.54 | 0.439 | 0.432 | 0.36 | 0.401 | 0.414 | 0.555 | 0.709 | 0.761 | 0.661 | 0.763 | 0.763 | 0.813 | 0.798 | 0.746 | 0.922 | 0.637 |
| NCI-H647 | 0.633 | 0.641 | 0.636 | 0.548 | 0.493 | 0.316 | 0.463 | 0.4 | 0.466 | 0.623 | 0.667 | 0.814 | 0.518 | 0.213 | 0.315 | 0.181 | 0.192 | 0.347 | 0.589 | 0.593 |
| NCI-H650 | 0.567 | 0.552 | 0.544 | 0.535 | 0.787 | 0.789 | – | 1.05 | 0.942 | 0.452 | 0.397 | 0.577 | 0.435 | 0.738 | 0.757 | 0.746 | 0.789 | 0.623 | – | 0.414 |
| NCI-H661 | 0.686 | 0.673 | 0.675 | 0.687 | 0.351 | 0.419 | – | 0.404 | 0.361 | 0.802 | 0.763 | 0.828 | 0.778 | 0.382 | 0.34 | 0.376 | 0.376 | 0.355 | 0.667 | 0.834 |
| NCI-H727 | 0.73 | 0.58 | 0.617 | 0.445 | 0.36 | 0.555 | 0.228 | 0.391 | 0.506 | 1.12 | – | 1.11 | 1.29 | 0.716 | 0.583 | 0.741 | 0.702 | 0.504 | 0.491 | 1.32 |
| NCI-H838 | 0.38 | 0.339 | 0.414 | 0.366 | 0.423 | 0.428 | 0.284 | 0.488 | 0.441 | 0.744 | 0.791 | 0.755 | 0.806 | 0.242 | 0.249 | 0.242 | 0.255 | 0.254 | 0.458 | 0.793 |
| NCI-H1355 | 0.477 | 0.412 | 0.458 | 0.411 | 0.427 | 0.375 | 0.354 | 0.546 | 0.476 | 0.621 | 0.602 | 0.652 | 0.669 | 0.587 | 0.597 | 0.534 | 0.534 | 0.542 | 0.291 | 0.644 |
| NCI-H1395 | 0.675 | 0.632 | 0.69 | 0.573 | 0.574 | 0.556 | 0.52 | 0.683 | 0.809 | 0.746 | – | 1 | 0.698 | 0.72 | 0.793 | 0.878 | 0.741 | 0.776 | 0.514 | 0.783 |
| NCI-H1437 | 0.963 | 0.882 | 0.921 | 0.922 | 0.464 | 0.411 | 0.453 | 0.628 | 0.506 | 0.849 | 0.851 | 0.857 | 0.832 | 0.429 | 0.403 | 0.412 | 0.322 | 0.439 | 0.896 | 0.957 |
| NCI-H1650 | 0.724 | 0.438 | 0.622 | 0.484 | 0.555 | 0.688 | 0.531 | 0.686 | 0.586 | 0.584 | 0.532 | 0.665 | 0.546 | 0.409 | 0.337 | 0.319 | 0.24 | 0.271 | 0.597 | 0.587 |
